#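 Compound exposure: 48 hours, 5 concentrations, 96-well plates. TGI: total growth inhibition.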
# System: SNB-19 CNS
# Test: DTP human tumour cell line panel, 48 h
row,SMILES,TGI
1,Cc1cccc2c1Oc1cc(Cl)ccc1C2NC(=O)CCN1CCOCC1 (configuration not stated),> 100 µM
2,COC(=O)C1=C(C)NC(C)=C(C(=O)OC)C1c1ccc(/[N+]([O-])=C/c2ccccc2)cc1,> 100 µM
3,CCN(CC)CCn1nc(N)c2nc3cc(Cl)ccc3nc21,> 100 µM
4,COc1ccc(CCNC2=CC(=O)c3ncccc3C2=O)cc1OC,7.27 µM
5,COc1ccc2c(c1)CCc1c-2[nH]c2ccc(OC)cc12,> 100 µM
6,CCN(CC)/C(Cl)=C(Cl)\C(=C1\Nc2ccc(OC)cc21)[N+](=O)[O-],> 100 µM
7,O=C(NCCCNC(=O)c1ccc2c(O)c(O)ccc2c1)c1ccc2c(O)c(O)ccc2c1,> 70.9 µM
8,COc1cc(/C=C2\C[C@H]3[C@@H]4CC=C5C[C@@H](O)CC[C@]5(C)[C@H]4CC[C@]3(C)C2=O)cc(OC)c1OC,> 100 µM
9,O=C1NC(=O)C(c2c[nH]c3cc(Br)ccc23)=C1c1cn(C(c2ccccc2)(c2ccccc2)c2ccccc2)cn1,97.4 µM
10,Cn1ccc(C(=O)NCCOCCNC(=O)c2ccn(C)c(=O)c2O)c(O)c1=O,> 100 µM
11,CSC1=C(SC)SC(=C2SC3=C(SC(=C4SCCS4)S3)S2)S1,> 100 µM
12,COn1cc(C=O)c2ccccc21,> 100 µM
13,CCOC(=O)C1=C(Nc2cccc(OC)c2)OCC1=O,> 100 µM
14,C#CCn1ncc2c(SCc3ccccc3)ncnc21,> 100 µM
15,CCC1OC2C(CC=C(C)C)=C3OC(C)(O)C(C)(CC)C(OC(=O)c4ccccc4)C3=C3OC(=O)C=C1C32 (configuration not stated),94.6 µM
16,CCN(CC)c1ccc2cc(-c3nnc(-c4ccccc4)o3)c(=O)oc2c1,> 80.9 µM
17,CC1=CC(C2/C(=N/O)C=C(C)CC2(C)C)C(O)C(C)(C)C1 (configuration not stated),29.5 µM
18,O=C(CC(c1ccccc1)N1CCCCC1)c1ccccc1 (configuration not stated),36.1 µM
19,O=C(O)c1nc(-c2ccccn2)c(-c2ccccn2)nc1C(=O)O,19.1 µM

# System: SW-620 colon
# Test: DTP human tumour cell line panel, 48 h
row,SMILES,TGI
1,N#CSc1nc[nH]c1C(N)=O,> 100 µM
2,CN(C)C(=O)NCCN1CCCCCc2ccccc21,> 100 µM
3,CC1(C#N)CC(C)(C)C(/C=C2/CC(C)(C)C(/C=C3/OC(=N)CC3(C)C)=N2)=N1 (configuration not stated),> 100 µM
4,Cc1cccc(/C=N/NC(=S)NCCc2ccccn2)n1,> 100 µM
5,O=C(C(=O)N1CCc2ccccc21)c1c[nH]c2ccccc12,> 10 µM
6,C=CCNC1=C2C[C@@H](C)C[C@@H](OC)[C@@H](OC(=O)CCCN)[C@H](C)/C=C(\C)[C@@H](OC(N)=O)[C@H](OC)/C=C\C=C(/C)C(=O)NC(=CC1=O)C2=O,> 60 µM
7,C[C@]12CCC(=O)C=C1CC[C@@H]1C2CC[C@]2(C)c3nn(-c4ccc(F)cc4)nc3CC12 (some centres not stated),> 100 µM
8,CCOC(=O)C(N)CSC(=O)NC (configuration not stated),308 µM
9,CC(=O)N(C(=O)CC(=O)N/N=C\c1ccc(Br)c(N(CCC#N)CCC#N)c1)c1ccc(Cl)cc1,> 100 µM
10,CCOC(=O)c1csc(NC(=O)C(C)N2CCCCC2)n1 (configuration not stated),> 100 µM
11,O=C1c2cc3c(cc2CC12Cc1cc4c(cc1C2=O)CCC4)CCCC3 (configuration not stated),> 100 µM
12,CC1(C)OCC2OC3(c4nc(C#N)c(N)o4)OC(C)(C)OC3C2O1 (configuration not stated),> 100 µM
13,Cc1cccc2c1Oc1cc(Cl)ccc1C2NC(=O)CCN1CCOCC1 (configuration not stated),> 100 µM
14,COC(=O)C1=C(C)NC(C)=C(C(=O)OC)C1c1ccc(/[N+]([O-])=C/c2ccccc2)cc1,35.5 µM
15,CCN(CC)CCn1nc(N)c2nc3cc(Cl)ccc3nc21,> 100 µM
16,COc1ccc(CCNC2=CC(=O)c3ncccc3C2=O)cc1OC,5.54 µM

row,SMILES,TGI
1,COc1ccc2c(c1)CCc1c-2[nH]c2ccc(OC)cc12,> 100 µM
2,CCN(CC)/C(Cl)=C(Cl)\C(=C1\Nc2ccc(OC)cc21)[N+](=O)[O-],> 100 µM
3,O=C(NCCCNC(=O)c1ccc2c(O)c(O)ccc2c1)c1ccc2c(O)c(O)ccc2c1,> 62.2 µM
4,COc1cc(/C=C2\C[C@H]3[C@@H]4CC=C5C[C@@H](O)CC[C@]5(C)[C@H]4CC[C@]3(C)C2=O)cc(OC)c1OC,> 100 µM
5,O=C1NC(=O)C(c2c[nH]c3cc(Br)ccc23)=C1c1cn(C(c2ccccc2)(c2ccccc2)c2ccccc2)cn1,> 100 µM
6,Cn1ccc(C(=O)NCCOCCNC(=O)c2ccn(C)c(=O)c2O)c(O)c1=O,> 100 µM
7,CSC1=C(SC)SC(=C2SC3=C(SC(=C4SCCS4)S3)S2)S1,> 100 µM
8,COn1cc(C=O)c2ccccc21,> 100 µM
9,CCOC(=O)C1=C(Nc2cccc(OC)c2)OCC1=O,> 100 µM
10,C#CCn1ncc2c(SCc3ccccc3)ncnc21,> 100 µM
11,CCC1OC2C(CC=C(C)C)=C3OC(C)(O)C(C)(CC)C(OC(=O)c4ccccc4)C3=C3OC(=O)C=C1C32 (configuration not stated),> 100 µM
12,CCN(CC)c1ccc2cc(-c3nnc(-c4ccccc4)o3)c(=O)oc2c1,> 100 µM
13,CC1=CC(C2/C(=N/O)C=C(C)CC2(C)C)C(O)C(C)(C)C1 (configuration not stated),41.8 µM
14,O=C(CC(c1ccccc1)N1CCCCC1)c1ccccc1 (configuration not stated),18.7 µM
15,O=C(O)c1nc(-c2ccccn2)c(-c2ccccn2)nc1C(=O)O,18.8 µM

# System: T-47D breast
# Test: DTP human tumour cell line panel, 48 h
row,SMILES,TGI
1,N#CSc1nc[nH]c1C(N)=O,> 100 µM
2,CN(C)C(=O)NCCN1CCCCCc2ccccc21,> 100 µM
3,CC1(C#N)CC(C)(C)C(/C=C2/CC(C)(C)C(/C=C3/OC(=N)CC3(C)C)=N2)=N1 (configuration not stated),61.8 µM
4,Cc1cccc(/C=N/NC(=S)NCCc2ccccn2)n1,> 100 µM
5,O=C(C(=O)N1CCc2ccccc21)c1c[nH]c2ccccc12,> 10 µM
6,C=CCNC1=C2C[C@@H](C)C[C@@H](OC)[C@@H](OC(=O)CCCN)[C@H](C)/C=C(\C)[C@@H](OC(N)=O)[C@H](OC)/C=C\C=C(/C)C(=O)NC(=CC1=O)C2=O,> 67.2 µM
7,C[C@]12CCC(=O)C=C1CC[C@@H]1C2CC[C@]2(C)c3nn(-c4ccc(F)cc4)nc3CC12 (some centres not stated),> 100 µM
